The results in this text go back to patent US8563553B2, “Compounds and compositions as protein kinase inhibitors” (Novartis AG, priority 2009, dated 2013).

This assay addresses b-Raf(V600E) (Homo sapiens (Human), UniProt P15056, V600E). Briefly: Raf/Mek Amplified Luminescence Proximity Homogeneous Assay (Alpha Screen). Conditions: b-Raf(V600E) approximately 4 pM; biotinylated Mek, kinase dead approximately 10 nM; ATP 10 μM; pre-incubation 60 minutes; reaction 3 hours at room temperature; read-out: mut-B-RAF IC50. It is filed as biochemical. As for the experimental part:
Raf/Mek Amplified Luminescence Proximity Homogeneous Assay
Assay buffer: 50 mM Tris, pH 7.5, 15 mM MgCl2, 0.01% Bovine Serum Albumin (BSA), 1 mM dithiothreitol (DTT) Stop buffer: 60 mM ethylenediaminetetraacetic acid (EDTA), 0.01% Tween® 20 Bead buffer: 50 mM Tris, pH 7.5, 0.01% Tween® 20 […]
biotinylated Mek, kinase dead
Alpha Screen detection kit (available from PerkinElmer™, #6760617R)
Anti phospho-MEK1/2 (available from Cell Signaling Technology, Inc. #9121) 384 well assay plates (White Greiner® plates, #781207) […]
biotinylated Mek, Kinase dead approximately 10 nM
Pre-incubation time with compounds 60 minutes at room temperature
Reaction time 1 or 3 hours at room temperature
Raf and biotinylated Mek, kinase dead, were combined at 2× final concentrations in assay buffer (50 mM Tris, pH 7.5, 15 mM MgCl2, 0.01% BSA and 1 mM DTT) and dispensed 10 μl per well in assay plates (Greiner white 384 well assay plates #781207) containing 0.5 μl of 40× of a raf kinase inhibitor test compound diluted in 100% DMSO. The plate was incubated for 60 minutes at room temperature.
The Raf kinase activity reaction was started by the addition of 10 μL per well of 2×ATP diluted in assay buffer. […] Phosphorylated product was measured using a rabbit anti-p-MEK (Cell Signaling, #9121) antibody and the Alpha Screen IgG (ProteinA) detection Kit (PerkinElmer #6760617R), by the addition of 30 μL to the well of a mixture of the antibody (1:2000 dilution) and detection beads (1:2000 dilution of both beads) in bead buffer (50 mM Tris, pH 7.5, 0.01% Tween20). The additions were carried out under dark conditions to protect the detection beads from light. A lid was placed on top of the plate and incubated for 1 hour at room temperature, then the luminescence was read on a PerkinElmer Envision instrument. The concentration of each compound for 50% inhibition (IC50) was calculated by non-linear regression using XL Fit data analysis software.

Sequence of b-Raf(V600E) (P15056 whole entry V600E): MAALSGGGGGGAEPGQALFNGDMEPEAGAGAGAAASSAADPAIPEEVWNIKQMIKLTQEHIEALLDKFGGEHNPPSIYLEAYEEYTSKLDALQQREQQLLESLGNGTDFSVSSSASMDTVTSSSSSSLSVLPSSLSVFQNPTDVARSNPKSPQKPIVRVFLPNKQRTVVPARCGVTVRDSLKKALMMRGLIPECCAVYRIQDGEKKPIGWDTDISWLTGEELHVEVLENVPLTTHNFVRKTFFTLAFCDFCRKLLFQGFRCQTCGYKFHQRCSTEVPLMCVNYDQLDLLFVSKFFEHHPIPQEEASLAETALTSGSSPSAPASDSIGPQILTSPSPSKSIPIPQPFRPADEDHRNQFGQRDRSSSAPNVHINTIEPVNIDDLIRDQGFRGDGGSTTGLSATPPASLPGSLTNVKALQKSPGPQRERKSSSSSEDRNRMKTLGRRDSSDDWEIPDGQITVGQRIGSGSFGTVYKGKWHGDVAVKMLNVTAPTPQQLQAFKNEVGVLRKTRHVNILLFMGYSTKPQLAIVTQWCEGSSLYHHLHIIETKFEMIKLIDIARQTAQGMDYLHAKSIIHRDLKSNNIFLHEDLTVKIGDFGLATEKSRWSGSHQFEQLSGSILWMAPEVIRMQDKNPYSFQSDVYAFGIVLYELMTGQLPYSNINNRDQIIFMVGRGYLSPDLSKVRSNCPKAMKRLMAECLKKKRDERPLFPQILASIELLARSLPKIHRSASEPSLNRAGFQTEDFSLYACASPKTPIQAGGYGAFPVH

`COC(=O)N[C@@H](C)CNc1nccc(-c2[nH]c(C(C)(C)C)nc2-c2cc(Cl)cc(NS(C)(=O)=O)c2)n1` [Example 1C, (S)-Methyl 1-(4-(2-tert-butyl-4-(3-chloro-5-(methylsulfonamido)phenyl)-1H-imidazol-5-yl)pyrimidin-2-ylamino)propan-2-ylcarbamate]: the IC50 was 0.32 nM.
With `COC(=O)N[C@@H](C)CNc1nccc(-c2[nH]c(C3CC3)nc2-c2cc(Cl)cc(NS(=O)(=O)C(C)C)c2)n1` [Example 1M, (S)-Methyl 1-(4-(4-(3-chloro-5-(1-methylethylsulfonamido)phenyl)-2-cyclopropyl-1H-imidazol-5-yl)pyrimidin-2-ylamino)propan-2-ylcarbamate] the figure was 0.63 nM; with `CNc1nccc(-c2[nH]c(C3CC3)nc2-c2cccc(NS(C)(=O)=O)c2F)n1` [Example 3A-2, N-(3-(2-cyclopropyl-5-(2-(methylamino)pyrimidin-4-yl)-1H-imidazol-4-yl)-2-fluorophenyl)methanesulfonamide], 578 nM.
With `CS(=O)(=O)Nc1cc(F)cc(-c2nc(C3CC3)[nH]c2-c2ccncn2)c1Cl` [Example 2J, N-(2-Chloro-3-(2-cyclopropyl-5-(pyrimidin-4-yl)-1H-imidazol-4-yl)-5-fluorophenyl)methanesulfonamide] the figure was 87 nM; with `CCCS(=O)(=O)Nc1cccc(-c2nc(C3CC3)[nH]c2-c2ccnc(NCCC#N)n2)c1F` [Example 4G, N-(3-(5-(2-(2-Cyanoethylamino)pyrimidin-4-yl)-2-cyclopropyl-1H-imidazol-4-yl)-2-fluorophenyl)propane-1-sulfonamide], 0.13 nM.
With `CS(=O)(=O)Nc1cc(Cl)cc(-c2nc(C3CC3)[nH]c2-c2ccnc(N)n2)c1F` [Example 1BG, N-(3-(5-(2-Aminopyrimidin-4-yl)-2-cyclopropyl-1H-imidazol-4-yl)-5-chloro-2-fluorophenyl)methanesulfonamide] the figure was 4 nM.
Regarding `CCCS(=O)(=O)Nc1cccc(-c2nc(C3CC3)[nH]c2-c2ccnc(NC[C@H](C)NC(=O)OC)n2)c1F` [Example 4C, (S)-Methyl 1-(4-(2-cyclopropyl-4-(2-fluoro-3-(propylsulfonamido)phenyl)-1H-imidazol-5-yl)pyrimidin-2-ylamino)propan-2-ylcarbamate], the IC50 came to 0.16 nM.
Regarding `COC(=O)N[C@@H](C)CNc1nccc(-c2[nH]c(C3CC3)nc2-c2c(F)ccc(NS(C)(=O)=O)c2Cl)n1` [Example 2F, Methyl (2S)-1-(4-(4-(2-chloro-6-fluoro-3-(methylsulfonamido)phenyl)-2-cyclopropyl-1H-imidazol-5-yl)pyrimidin-2-ylamino)propan-2-ylcarbamate], the IC50 worked out at 5 nM.
The figure for `COC(=O)N[C@@H](C)CNc1nccc(-c2[nH]c(C(C)(C)C)nc2-c2cc(F)cc(NS(C)(=O)=O)c2Cl)n1` [Example 1AG, (S)-Methyl 1-(4-(2-tert-butyl-4-(2-chloro-5-fluoro-3-(methylsulfonamido)phenyl)-1H-imidazol-5-yl)pyrimidin-2-ylamino)propan-2-ylcarbamate] is 1 nM.
For `COC(=O)N[C@@H](C)CNc1nccc(-c2[nH]c(C3CC3)nc2-c2cc(F)cc(NS(=O)(=O)c3c(F)cccc3F)c2Cl)n1` [Example 1BI, (S)-Methyl 1-(4-(4-(2-chloro-3-(2,6-difluorophenylsulfonamido)-5-fluorophenyl)-2-cyclopropyl-1H-imidazol-5-yl)pyrimidin-2-ylamino)propan-2-ylcarbamate], the IC50 was determined as 0.1 nM.
With `CCCS(=O)(=O)Nc1cc(F)cc(-c2nc(C3CC3)[nH]c2-c2ccnc(NC(C)C)n2)c1Cl` [Example 1AU, N-(2-Chloro-3-(2-cyclopropyl-5-(2-(isopropylamino)pyrimidin-4-yl)-1H-imidazol-4-yl)-5-fluorophenyl)propane-1-sulfonamide] the figure was 5 nM; with `CCS(=O)(=O)Nc1cc(Cl)cc(-c2[nH]c(C3CC3)nc2-c2ccnc(NC[C@H](C)NC(=O)OC)n2)c1F` [Example 1Z, (S)-Methyl 1-(4-(5-(5-chloro-3-(ethylsulfonamido)-2-fluorophenyl)-2-cyclopropyl-1H-imidazol-4-yl)pyrimidin-2-ylamino)propan-2-ylcarbamate], 0.24 nM; with `COC(=O)N[C@H](C)CNc1nccc(-c2[nH]c(C3CC3)nc2-c2cc(F)cc(NS(C)(=O)=O)c2Cl)n1` [Example 1AV, (R)-Methyl 1-(4-(4-(2-chloro-5-fluoro-3-(methylsulfonamido)phenyl)-2-cyclopropyl-1H-imidazol-5-yl)pyrimidin-2-ylamino)propan-2-ylcarbamate], 11 nM.
The figure for `COC(=O)N[C@@H](C)CNc1nccc(-c2[nH]c(C3CC3)nc2-c2cccc(NS(C)(=O)=O)c2)n1` [Example 4K, (S)-Methyl 1-(4-(2-cyclopropyl-4-(3-(methylsulfonamido)phenyl)-1H-imidazol-5-yl)pyrimidin-2-ylamino)propan-2-ylcarbamate] is 8 nM; for `CC1(c2nc(-c3cccc(NS(C)(=O)=O)c3Cl)c(-c3ccnc(NCCC#N)n3)[nH]2)CC1` [Example 1BC, N-(2-Chloro-3-(5-(2-(2-cyanoethylamino)pyrimidin-4-yl)-2-(1-methylcyclopropyl)-1H-imidazol-4-yl)phenyl)methanesulfonamide] it is 1 nM; for `CC(C)(C)c1nc(-c2cc(Cl)cc(NS(C)(=O)=O)c2F)c(-c2ccnc(N)n2)[nH]1` [Example 1BD, N-(3-(5-(2-Aminopyrimidin-4-yl)-2-tert-butyl-1H-imidazol-4-yl)-5-chloro-2-fluorophenyl)methanesulfonamide] it is 3 nM.
Turning to `CC1(c2nc(-c3cc(F)cc(NS(C)(=O)=O)c3Cl)c(-c3ccnc(NCCC#N)n3)[nH]2)CC1` [Example 1AY, N-(2-Chloro-3-(5-(2-(2-cyanoethylamino)pyrimidin-4-yl)-2-(1-methylcyclopropyl)-1H-imidazol-4-yl)-5-fluorophenyl)methanesulfonamide], the half-inhibitory concentration (IC50) amounted to 0.23 nM.
The figure for `CCCS(=O)(=O)Nc1cc(F)cc(-c2nc(C3CC3)[nH]c2-c2ccnc(NCC)n2)c1Cl` [Example 1AS, N-(2-Chloro-3-(2-cyclopropyl-5-(2-(ethylamino)pyrimidin-4-yl)-1H-imidazol-4-yl)-5-fluorophenyl)propane-1-sulfonamide] is 1 nM; for `COC(=O)N[C@@H](C)CNc1nccc(-c2[nH]c(C3CC3)nc2-c2cc(F)cc(NS(C)(=O)=O)c2F)n1` [Example 1V, Methyl (2S)-1-(4-(2-cyclopropyl-4-(2,5-difluoro-3-(methylsulfonamido)phenyl)-1H-imidazol-5-yl)pyrimidin-2-ylamino)propan-2-ylcarbamate] it is 0.2 nM.
For the molecule `COC(=O)N[C@@H](C)CNc1nccc(-c2nc(C3CC3)[nH]c2-c2cc(Cl)cc(NS(=O)(=O)c3cccc(F)c3)c2F)n1` [Example 1AX, (S)-Methyl 1-(4-(5-(5-chloro-2-fluoro-3-(3-fluorophenylsulfonamido)phenyl)-2-cyclopropyl-1H-imidazol-4-yl)pyrimidin-2-ylamino)propan-2-ylcarbamate], the IC50 worked out at 0.33 nM.
The figure for `COC(=O)N[C@@H](C)CNc1nccc(-c2[nH]c(C3CC3)nc2-c2cc(C)cc(NS(C)(=O)=O)c2F)n1` [Example 1B, (S)-methyl 1-(4-(2-cyclopropyl-4-(2-fluoro-5-methyl-3-(methylsulfonamido)phenyl)-1H-imidazol-5-yl)pyrimidin-2-ylamino)propan-2-ylcarbamate] is 0.2 nM.

In general, IC50 refers to the concentration that gives 50% inhibition.
